Earlier results in US20230181690A1, “METHODS FOR TREATING ANEMIA USING AN ACTRIIB LIGAND TRAP AND FEDRATINIB” (Celgene Corporation, priority 2020, published 2023).

Tests used:
[1] = system: MPN-associated myelofibrosis
[2] = system: cell models expressing mutationally active JAK2 or FLT3
[3] = system: cell models expressing mutationally active JAK2 or FLT3; remark: listed apart in the source
[4] = system: JAK2V617F-driven myeloproliferative disease; conditions: mouse, in vivo
[5] = system: intermediate-2 or high-risk MF; conditions: previously untreated patients with intermediate-2 or high-risk MF
GDF-11 = biological target: T1, GDF-11 (Homo sapiens, UniProt O95390)
T1 sequence (O95390 299-407): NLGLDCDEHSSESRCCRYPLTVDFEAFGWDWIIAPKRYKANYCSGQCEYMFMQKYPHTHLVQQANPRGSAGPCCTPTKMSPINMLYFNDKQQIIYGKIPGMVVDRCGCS

N#CC[C@H](C1CCCC1)n1cc(-c2ncnc3[nH]ccc23)cn1 [ruxolitinib]
exacerbation of anemia ([1]; patients with MPN-associated myelofibrosis): can exacerbate the anemia

Cc1cnc(Nc2ccc(OCCN3CCCC3)cc2)nc1Nc1cccc(S(=O)(=O)NC(C)(C)C)c1 [fedratinib, N-tert-butyl-3-[(5-methyl-2-{4-[2-(pyrrolidin-1-yl)ethoxy]anilino}pyrimidin-4-yl)amino]benzenesulfonamide]
potency for JAK2 over family members JAK1, JAK3 and TYK2 (Janus Kinase 2 (JAK2)): higher potency for JAK2 over family members JAK1, JAK3 and tyrosine kinase 2 (TYK2) | phosphorylation of STAT3/5 proteins [2]: reduced phosphorylation | cell proliferation [3]: inhibited cell proliferation | disease-associated symptoms [4]: improved disease-associated symptoms, including reduction of white blood cells, hematocrit, splenomegaly, and fibrosis | phosphorylation of STAT3/5 [4]: blocked phosphorylation of STAT3/5 | clinical efficacy [5]: demonstrated clinical efficacy | thrombocytopenia and anemia associated with therapy ([1]; patients): can be associated with moderate to severe thrombocytopenia and anemia

B1: A64: Fc fusion protein having the ActRIIB extracellular sequence with an alanine at position 64 of SEQ ID NO:2 (protein)
chain: SGRGEAETRECIYYNANWELERTNQSGLERCEGEQDKRLHCYASWANSSGTIELVKKGCWLDDFNCYDRQECVATEENPQVYFCCCEGNFCNERFTHLPEAGGPEVTYEPPPTAPTGGGTHTCPPCPAPELLGGPSVFLFPPKPKDTLMISRTPEVTCVVVDVSHEDPEVKFNWYVDGVEVHNAKTKPREEQYNSTYRVVSVLTVLHQDWLNGKEYKCKVSNKALPVPIEKTISKAKGQPREPQVYTLPPSREEMTKNQVSLTCLVKGFYPSDIAVEWESNGQPENNYKTTPPVLDSDGSFFLYSKLTVDKSRWQQGNVFSCSVMHEALHNHYTQKSLSLSPGK
modifications: fusion protein comprising a soluble extracellular domain of ActRIIB (A64; SEQ ID NO 3) fused to an Fc domain
affinity for activin (activin): relatively low affinity | affinity for GDF-11 (GDF-11): relatively low affinity

B2: R64: Fc fusion protein with an arginine at position 64 of the ActRIIB precursor amino acid sequence (protein)
chain: SGRGEAETRECIYYNANWELERTNQSGLERCEGEQDKRLHCYASWRNSSGTIELVKKGCWLDDFNCYDRQECVATEENPQVYFCCCEGNFCNERFTHLPEAGGPEVTYEPPPTAPTGGGTHTCPPCPAPELLGGPSVFLFPPKPKDTLMISRTPEVTCVVVDVSHEDPEVKFNWYVDGVEVHNAKTKPREEQYNSTYRVVSVLTVLHQDWLNGKEYKCKVSNKALPVPIEKTISKAKGQPREPQVYTLPPSREEMTKNQVSLTCLVKGFYPSDIAVEWESNGQPENNYKTTPPVLDSDGSFFLYSKLTVDKSRWQQGNVFSCSVMHEALHNHYTQKSLSLSPGK
modifications: fusion protein comprising a soluble extracellular domain of ActRIIB (R64; SEQ ID NO15) fused to an Fc domain
affinity for activin (activin): low nanomolar to high picomolar range | affinity for GDF-11 (GDF-11): low nanomolar to high picomolar range

B3: ActRIIB(20-119)-Fc: ActRIIB-Fc fusion protein containing amino acids 20-119 of SEQ ID NO:14 (SEQ ID NO:18) (protein)
chain: GRGEAETRECIYYNANWELERTNQSGLERCEGEQDKRLHCYASWRNSSGTIELVKKGCWLDDFNCYDRQECVATEENPQVYFCCCEGNFCNERFTHLPEA
modifications: human ActRIIB soluble (extracellular), processed polypeptide sequence with the C-terminal 15 aa deleted (aa 20-119 of SEQ ID NO14)
binding to activin relative to ActRIIB(20-134)-Fc (activin): reduced binding | binding to GDF-11 relative to ActRIIB(20-134)-Fc (GDF-11): reduced binding
